Assays:
Format in all cases: functional
A549 = test: Cytotoxicity against human A549 cells after 48 hrs by SRB assay; settings: A549, 48 h
MDA-MB-435 = test: Cytotoxicity against human MDA-MB-435 cells after 48 hrs by SRB assay; settings: MDA-MB-435, 48 h
[1] = Cytotoxicity against human HCT15 cells after 48 hrs by SRB assay; settings: HCT-15, 48 h
[2] = Cytotoxicity against human PC3 cells after 48 hrs by SRB assay; settings: PC-3, 48 h
EKVX = test: Cytotoxicity against human EKVX cells after 48 hrs by SRB assay
[3] = Cytotoxicity against human RXF393 cells after 48 hrs by SRB assay; settings: RXF 393, 48 h
[4] = Cytotoxicity against human HOP92 cells after 48 hrs by SRB assay; settings: HOP-92, 48 h
U-251 = test: Cytotoxicity against human U251 cells after 48 hrs by SRB assay; settings: U-251, 48 h
[5] = Cytotoxicity against human HCC2998 cells after 48 hrs by SRB assay; settings: HCC 2998, 48 h
[6] = Cytotoxicity against human UACC257 cells after 48 hrs by SRB assay; settings: UACC-257, 48 h
[7] = Cytotoxicity against human Hs578T cells after 48 hrs by SRB assay; settings: Hs-578T
MCF7 = test: Cytotoxicity against human MCF7 cells after 48 hrs by SRB assay; settings: MCF7, 48 h
SK-MEL-5 = test: Cytotoxicity against human SK-MEL-5 cells after 48 hrs by SRB assay; settings: SK-MEL-5, 48 h
MDA-MB-468 = test: Cytotoxicity against human MDA-MB-468 cells after 48 hrs by SRB assay; settings: MDA-MB-468, 48 h
[8] = Cytotoxicity against human HCT116 cells after 48 hrs by SRB assay; settings: HCT-116, 48 h
[9] = Cytotoxicity against human HOP62 cells after 48 hrs by SRB assay; settings: HOP-62, 48 h
[10] = Cytotoxicity against human NCI-ADR-RES cells after 48 hrs by SRB assay
[11] = Cytotoxicity against human IGROV1 cells after 48 hrs by SRB assay; settings: IGROV-1, 48 h
NCI-H460 = test: Cytotoxicity against human NCI-H460 cells after 48 hrs by SRB assay; settings: NCI-H460, 48 h
[12] = Cytotoxicity against human SNB75 cells after 48 hrs by SRB assay; settings: SNB-75, 48 h
M14 = test: Cytotoxicity against human M14 cells after 48 hrs by SRB assay; settings: M14, 48 h
[13] = Cytotoxicity against human OVCAR3 cells after 48 hrs by SRB assay; settings: OVCAR-3, 48 h
[14] = Cytotoxicity against human OVCAR5 cells after 48 hrs by SRB assay; settings: OVCAR-5, 48 h
A498 = test: Cytotoxicity against human A498 cells after 48 hrs by SRB assay; settings: A498, 48 h
[15] = Cytotoxicity against human SF295 cells after 48 hrs by SRB assay; settings: SF-295, 48 h
[16] = Cytotoxicity against human SNB19 cells after 48 hrs by SRB assay; settings: SNB-19, 48 h
[17] = Cytotoxicity against human OVCAR4 cells after 48 hrs by SRB assay; settings: OVCAR-4, 48 h
MDA-MB-231 = test: Cytotoxicity against human MDA-MB-231 cells after 48 hrs by SRB assay; settings: MDA-MB-231, 48 h
786-0 = test: Cytotoxicity against human 786-0 cells after 48 hrs by SRB assay; settings: 786-0, 48 h
[18] = Cytotoxicity against human HL-60(TB) cells after 48 hrs by SRB assay; settings: HL-60, 48 h
[19] = Cytotoxicity against human DU145 cells after 48 hrs by SRB assay; settings: DU-145, 48 h
[20] = Cytotoxicity against human UACC62 cells after 48 hrs by SRB assay; settings: UACC-62, 48 h
[21] = Cytotoxicity against human MOLT4 cells after 48 hrs by SRB assay; settings: MOLT-4, 48 h
[22] = read-out: LC50 (the source's name)

SMILES: C=C1CC[C@@H]2[C@](C)(COC(C)=O)[C@H](OC(C)=O)CC[C@@]2(C)[C@@H]1CC(Nc1ccc(S(=O)(=O)NC(C)=O)cc1)C1=CCOC1=O (mixture of isomers)
- GI50 (A549): 8.41 µM
- LC50 (A549): 40 µM
- TGI (A549): 18.3 µM
- GI50 (MDA-MB-435): 2.79 µM
- LC50 (50% lethal concentration) (MDA-MB-435): 30.6 µM
- TGI (MDA-MB-435): 10.6 µM
- GI50 [1]: 1.53 µM
- LC50 [1]: 38 µM
- TGI [1]: 4.36 µM
- GI50 [2]: 6.56 µM
- LC50 [2]: 40 µM
- TGI [2]: 16.8 µM
- GI50 (EKVX): 10.8 µM
- LC50 (EKVX): 40.3 µM
- TGI (EKVX): 20.9 µM
- GI50 [3]: 1.96 µM
- LC50 (concentration causing 50% net cell kill) [3]: 18.8 µM
- TGI [3]: 4.69 µM
- GI50 [4]: 6.5 µM
- LC50 [4]: 35.5 µM
- TGI [4]: 15.9 µM
- GI50 (U-251): 3.49 µM
- LC50 (concentration giving 50% net cell kill) (U-251): 30.8 µM
- TGI (U-251): 12 µM
- GI50 [5]: 7.51 µM
- LC50 [5]: 40.1 µM
- TGI [5]: 17.3 µM
- GI50 [6]: 6.83 µM
- LC50 (concentration killing 50% of cells) [6]: 35.6 µM
- TGI [6]: 16 µM
- GI50 [7]: 8.45 µM
- LC50 (concentration killing 50% of cells) [7]: > 75 µM
- TGI [7]: 38.8 µM
- GI50 (MCF7): 1.92 µM
- LC50 (50% lethal concentration) (MCF7): > 75 µM
- TGI (MCF7): 11.3 µM
- GI50 (SK-MEL-5): 3.22 µM
- LC50 (concentration killing 50% of cells) (SK-MEL-5): 30.7 µM
- TGI (SK-MEL-5): 11.5 µM
- GI50 (MDA-MB-468): 1.53 µM
- LC50 (MDA-MB-468): 6.39 µM
- TGI (MDA-MB-468): 3.13 µM
- GI50 [8]: 1.67 µM
- LC50 (concentration killing 50% of cells) [8]: 12.3 µM
- TGI [8]: 3.66 µM
- GI50 [9]: 10.8 µM
- LC50 [9]: 41.1 µM
- TGI [9]: 21.1 µM
- GI50 [10]: 2.51 µM
- LC50 [10]: > 75 µM
- TGI [10]: 9.14 µM
- GI50 [11]: 5.31 µM
- TGI [11]: 15.4 µM
- CC50 [11, 22]: 37.1 µM
- GI50 (NCI-H460): 6.72 µM
- TGI (NCI-H460): 17.9 µM
- CC50 (NCI-H460; [22]): 44.7 µM
- GI50 [12]: 3.08 µM
- TGI [12]: 12.7 µM
- CC50 [12, 22]: 30.9 µM
- GI50 (M14): 2.86 µM
- LC50 (M14): 45.8 µM
- TGI (M14): 11.9 µM
- GI50 [13]: 1.49 µM
- LC50 (concentration killing 50% of cells) [13]: 6.13 µM
- TGI [13]: 3.02 µM
- GI50 [14]: 4.82 µM
- LC50 (concentration causing 50% net cell kill) [14]: 39.5 µM
- TGI [14]: 15.4 µM
- GI50 (A498): 10.3 µM
- TGI (A498): 20.1 µM
- CC50 (A498; [22]): 39.3 µM
- GI50 [15]: 11.5 µM
- LC50 [15]: 42.2 µM
- TGI [15]: 22 µM
- GI50 [16]: 8.19 µM
- LC50 (concentration killing 50% of cells) [16]: 43.7 µM
- TGI [16]: 18.9 µM
- GI50 [17]: 4.14 µM
- TGI [17]: 13.7 µM
- CC50 [17, 22]: 33.7 µM
- GI50 (MDA-MB-231): 3.32 µM
- LC50 (MDA-MB-231): 35.1 µM
- TGI (MDA-MB-231): 11.6 µM
- GI50 (786-0): 2.44 µM
- LC50 (786-0): 26.2 µM
- TGI (786-0): 7.98 µM
- GI50 [18]: 2.45 µM
- TGI [18]: 12 µM
- CC50 [18, 22]: > 75 µM
- GI50 [19]: 2.8 µM
- LC50 (concentration killing 50% of cells) [19]: 27 µM
- TGI [19]: 9.74 µM
- GI50 [20]: 2.59 µM
- LC50 [20]: 32 µM
- TGI [20]: 10.8 µM
- GI50 [21]: 2.2 µM
- LC50 [21]: > 75 µM
- TGI [21]: 6.66 µM
